Measurements as given in US20070134725A1, “METHOD TO PREDICT RISK OF BPH PROGRESSION” (Baylor College of Medicine, priority 2004, published 2007).

Assays:
men with LUTS and BPH [1] = test: MTOPS trial of finasteride and doxazosin, alone or together, in men with BPH; Cox/competing risks models; assay type: in vivo, human; settings: for Hazard Ratio: multivariable Cox model; for risk of AUR and/or SI in treated patients / risk of symptom progression in treated patients: within 4 years, result in words
Description: Medical Therapy of Prostatic Symptoms (MTOPS) is a clinical research study sponsored by the National Institutes of Health (NIH). The study tested whether the oral drugs finasteride (Proscar®) and doxazosin (Cardura®), alone or together, can further delay or prevent further prostate growth in men with BPH.
MTOPS is the largest and longest study to test whether the drugs can stop noncancerous prostate growth. Seventeen U.S. medical centers recruited […] men diagnosed with symptomatic BPH between December 1995 and March 1998. The study doctors continued to follow these men through November 2001 on a quarterly basis. In addition to the clinical progression of BPH, MTOPS included evaluations of prostate volume by ultrasound, prostate histopathobiology, quality of life and urodynamics. (Funding by NIDDK (UO1-DK-46472), 1992-2002; IND 43,564; http://www.bsc.gwu.edu/mtops/; McConnell et al., 2003).)
Herein described is the development of a nomogram similar to that shown in Examples 1 and 3 using data from the MTOPS study. In this double-blind, randomized, placebo-controlled trial, 3047 men with moderate-to-severe urinary symptoms and enlarged prostate glands were randomized to receive either 1) doxazosin+placebo; 2) finasteride+placebo; 3) doxazosin+finasteride; or 4) placebo+placebo for a minimum of four and a maximum of six years, with an average follow-up of five years. Complete data on outcomes were available for 3047 men and frozen sera was archived at baseline.
(§1) Intent-to-treat, competing risks methodology was employed to model the 3,047 men with LUTS and BPH randomized to the MTOPS trial, a 5 year, randomized, placebo-controlled study evaluating the efficacy and safety of BPH medical therapy. These men were characterized at baseline by a number of parameters, including patient age and race, AUA symptom index (AUA-SI), BPH Impact Index (BII), total prostate and TZ volume measured by ultrasound, total prostate specific antigen (PSA) level, maximum flow rate (Qmax) and post-void residual (PVR) urine volume. Cox proportional hazards regression was used to relate these baseline variables to their future probability of AUR/SI within 4 years. The nomogram was internally validated with bootstrapping to assess its discrimination and calibration. Discrimination was quantified as the concordance index (CI).
as §1, with “used” for “employed”, “(Qmax),” for “(Qmax)”, “reaching a symptom progression endpoint” for “AUR/SI”
Table 13 provides P values for a series of predictors, including BPSA levels, in a multivariate competing risks model for AUR and/or SI. BPSA is a novel serum marker for BPH, and independently predicts the risk of AUR and/or surgery in men with BPH. Thus, nomogram tools that incorporate BPSA levels may improve the ability to manage patients with BPH.

men with LUTS and BPH [2] = test system: men with LUTS and BPH; parameters: Creatinine Rise, endpoint events: unit not given here; settings: entire MTOPS cohort, number of events per treatment group; cited from earlier work
male subjects with BPH [3] = test: Phase III placebo-controlled studies of dutasteride in men with BPH (ARIA 3001, 3002, 3003); Cox regression nomogram for AUR/SI within 2 years; assay type: in vivo, human
Description: The use of single parameters to predict the risk of BPH progression or to determine the relative reduction potentially gained with 5ARI therapy is not optimal. Nomograms are prediction tools optimized for accuracy that utilize multiple parameters to predict specific outcomes. The objective of this study was to develop a prediction model, or nomogram, that would predict the probability that a person with BPH would experience AUR or require surgical intervention (SI) within two years, using data from the recently completed Phase III studies of dutasteride versus placebo in men with BPH (Roehrborn et al. 2002).
Data from three two-year multicenter, placebo-controlled, double-blind studies evaluating dutasteride 0.5 mg/day (n=2,167) or placebo (n=2,158) in male subjects with BPH were utilized to develop a nomogram. […] Most of the 4,325 subjects randomly assigned to receive either dutasteride or placebo completed 2 years of treatment (70% and 67%, respectively).
Subjects were characterized at baseline by a number of parameters, including AUA symptom index (AUA-SI) score, BPH impact index (BII) score, prostate volume, prostate specific antigen (PSA) level, maximum urinary flow rate (Qmax), and prior use of selective α1 blockers. Cox proportional hazards regression was used to relate these baseline variables to the future probability of developing AUR or requiring surgical intervention within 2 years. The nomogram was internally validated with bootstrapping, a re-sampling technique, to assess its discrimination and calibration. Discrimination was quantified as the concordance index, which is rated from 0.5 to 1.00. Calibration was assessed visually, by plotting observed proportions against predicted probabilities, again using bootstrapping to reduce over-fit bias.
With these benefits in mind, a nomogram was constructed to predict the risk of BPH progression using data from a phase III pivotal trial (ARIA 3001, 3002, 3003) used to establish the safety and efficacy of dutasteride prior to FDA approval. For each individual predictive parameter, points are awarded by drawing a perpendicular line to the point scale along the top of the nomogram. After all points are added, a perpendicular line is drawn from the bottom, total points scale to the line below, indicating the 2 year probability of a patient's developing retention or requiring BPH-related surgery within two years. Note that the use of dutasteride (versus placebo) leads to a total point score reduced by approximately 20 to 25 points, which translates to a 50% relative risk reduction across the entire range of total points for any patient. […] Thus, a 50% relative risk reduction over two years translates into about 13 to 14% absolute risk reduction over this very short time frame, with a much greater benefit likely experienced over time.

male subjects with BPH [4] = settings: cited from earlier work
[5] = test system: men with moderate-to-severe urinary symptoms and enlarged prostate glands; settings: PLESS, 5 mg finasteride, four years; cited from earlier work
[6] = AUR/SI within 4 years, intent-to-treat, competing risks
[7] = symptom progression (4-point rise in AUA-SI) within 4 years
[8] = dutasteride 0.5 mg/day vs placebo, over 24 months

## COc1cc2nc(N3CCN(C(=O)C4COc5ccccc5O4)CC3)nc(N)c2cc1OC (stereo not shown) [doxazosin]
Men with LUTS and BPH [1]; [6]
  Hazard Ratio: 0.7154
Men with LUTS and BPH [1]; [7]
  Hazard Ratio: 0.5278
Men with LUTS and BPH [1]
  risk of AUR and/or SI in treated patients: not
  risk of symptom progression in treated patients: significantly reduced risk of symptom progression
Men with LUTS and BPH [2]
  AUA Rise, endpoint events: 59
  BPH Invasive Therapy, events: 41
  Creatinine Rise, endpoint events: 0
  Incontinence, endpoint events: 11
  Retention, endpoint events: 13
  Total endpoint events: 85
  UTI/urosepsis, endpoint events: 2

## C[C@]12C=CC(=O)N[C@@H]1CC[C@@H]1[C@@H]2CC[C@]2(C)[C@@H](C(=O)Nc3cc(C(F)(F)F)ccc3C(F)(F)F)CC[C@@H]12 [dutasteride]
Male subjects with BPH [3]; 2-year AUR/SI nomogram
  relative risk reduction across the entire range of total points: 50%
Male subjects with BPH [3]; full multivariate Cox model, AUR or surgical intervention within 2 years, dutasteride vs placebo group
  Hazard Ratio (95% CIs): 0.50 (0.37, 0.66)
Male subjects with BPH [3]; over two years, most severely affected patients (27% maximum risk)
  absolute risk reduction: 13 to 14%
Male subjects with BPH [3]; use of dutasteride versus placebo, 2-year AUR/SI nomogram
  reduction of nomogram total point score: 20 to 25 points
Male subjects with BPH [3]; vs placebo, at endpoint
  relative risk reduction of AUR and/or surgical intervention: 50%
Male subjects with BPH [4]; at endpoint, 2-year studies
  patients who had experienced AUR and/or surgical intervention at endpoint: 3.5%
Male subjects with BPH [4]; [8]
  reduction in the need for BPH-related surgery: 48%
  reduction in the risk of AUR: 57%

## CC(C)(C)NC(=O)[C@H]1CC[C@H]2[C@@H]3CC[C@H]4NC(=O)C=C[C@]4(C)[C@H]3CC[C@]12C [finasteride]
Men with LUTS and BPH [1]; [6]
  Hazard Ratio: 0.3506
Men with LUTS and BPH [1]; [7]
  Hazard Ratio: 0.6961
Men with LUTS and BPH [1]
  risk of AUR and/or SI in treated patients: reduced risk of AUR and/or SI
  risk of symptom progression in treated patients: significantly reduced risk of symptom progression
Men with LUTS and BPH [2]
  AUA Rise, endpoint events: 74
  BPH Invasive Therapy, events: 15
  Creatinine Rise, endpoint events: 0
  Incontinence, endpoint events: 9
  Retention, endpoint events: 6
  Total endpoint events: 89
  UTI/urosepsis, endpoint events: 0
[5]
  incidence of BPH-related surgery: 5%
  incidence of precipitated AUR: 2%
  incidence of spontaneous AUR: 1%
  overall incidence of AUR: 4%
